Results on eight compounds are retold here after patent US9744164B2, “Neuroprotective polyphenol analogs” (Salk Institute for Biological Studies, priority 2011, dated 2017).

One experiment concerns HT22 cells. In words: in vitro ischemia assay (HT22 cell IAA assay). Conditions: HT22 cells, 20 μM IAA 2 hr, viability by MTT after 24 hr; 'no' = no protection. Format: cell-based, mouse. Here is the method:
For these studies, cultured HT22 mouse hippocampal cells were used as an in vitro stroke assay. HT22 cells were treated with iodoacetic acid (IAA), an irreversible inhibitor of glyceraldehyde 3-phosphate dehydrogenase (G3PDH) for 2 hr alone or in the presence of varying concentrations of Fisetin. G3PDH is an enzyme of the glycolysis pathway, which catalyzes the synthesis of 1,3-bisphosphoglycerate, a “high energy” intermediate used for the synthesis of ATP. Cell survival was measured using a standard colorimetric MTT (3-(4,5-dimethylthiazol-2-yl)-2,5-diphenyltetrazolium bromide) assay for cell survival MTT is a pale yellow substrate that is cleaved by living cells to yield a dark blue formazan product.
Cytotoxicity assay. Cell viability was determined by a modified version of 3-(4,5-dimethylthiazol-2-yl)-2,5-diphenyl tetrazolium bromide (MTT) assay based on the standard procedure (Maher, et al., Brain Research. (2007), supra). Cells were seeded onto 96-well microtiter plates at a density of 5×10^3 cells per well. For the in vitro ischemia assay, the next day, the medium was replaced with DMEM supplemented with 7.5% DFCS and the cells were treated with 20 μM iodoacetic acid (IAA) alone or in the presence of the different derivatives. After 2 hr the medium in each well was aspirated and replaced with fresh medium without IAA but containing the derivatives. 20 hr later, the medium in each well was aspirated and replaced with fresh medium containing 2.5 μg/ml MTT. After 4 hr of incubation at 37° C., the cells were solubilized with 100 μl of a solution containing 50% dimethylformamide and 20% SDS (pH 4.7). The absorbance at 570 nm was measured on the following day with a microplate reader (Molecular Devices). Results were confirmed by visual inspection of the wells. Controls included compound alone to test for toxicity and compound with no cells to test for interference with the assay chemistry.
For a primary screen, an in vitro ischemia model in combination with the HT22 nerve cell line (Maher, et al., Brain Research. (2007) 1173, 117-125) was chosen. […] To induce ischemia in the HT22 cells we used iodoacetic acid (IAA), a well-known, irreversible inhibitor of the glycolytic enzyme glyceraldehyde 3-phosphate dehydrogenase (G3PDH) (Winkler, et al., Exp. Eye Res. (2003) 76, 715-723). IAA has been used in a number of other studies to induce ischemia in nerve cells (Reshef, et al., Neurosci. Lett. (1997) 238, 37-40; Sperling, et al., Neursci. Lett. (2003) 351, 137-140; Rego, et al., Neurochem. Res. (1999) 24, 351-358; Sigalov, et al,. J. Mol. Neurosci. (2000) 15, 147-154; and Reiner, et al., Neurosci. Lett. (1990) 119, 175-178), including several recent screens for neuroprotective molecules (Biraboneye, et al., J. Med. Chem. (2009) 52 (14), 4358-4369; Biraboneye, et al., Chem. Med. Chem. (2010) 5 (1), 79-85). The changes following IAA treatment of neural cells are very similar to those seen in animal models of ischemic stroke (Lipton, et al., Physiol. Rev. (1999) 79, 1431-1568) and include alterations in membrane potential (Reiner, et al., Neurosci. Lett. (1990) 119, 175-178), breakdown of phospholipids (Taylor, et al., J. Pharmacol. Exp. Ther. (1996) 276, 1224-1231), loss of ATP (Winkler, et al., Exp. Eye Res. (2003) 76, 715-723; Sperling, et al., Neursci. Lett. (2003) 351, 137-140) and an increase in reactive oxygen species (ROS) (Taylor, et al., J. Pharmacol. Exp. Ther. (1996), supra; and Sperling, et al., Neursci. Lett. (2003) 351, 137-140).
The roles of the four different hydroxyl groups in the activity of Fisetin were studied. […] Cell viability was determined after 24 hr by the MTT assay. The ability to maintain GSH (GSH) was determined by treating HT22 cells with different doses of each derivative (1-10 μM) in the presence of 5 mM glutamate. After 24 hr cell extracts were prepared and analyzed for total GSH. Fisetin (10 μM) was used as a positive control. […]
Take `COc1cc(-c2ccc(N3CCCC3)cc2)nc2ccccc12` [CMS-110, 4-methoxy-2-(4-(pyrrolidin-1-yl)phenyl)quinoline]: the “EC50 in vitro ischemia” value is on record as “no”.
Still for that read-out and setting: the same measure for `COc1cc(-c2ccc([N+](=O)[O-])c(O)c2)nc2ccccc12` [CMS-111, 4-methoxy-2-(3-hydroxy-4-nitrophenyl)quinoline]: “no”.

The experiment is the same for the next values; noted with them: benzene ring added to A ring, relative to CMS-04P.
As to `O=c1c(O)c(-c2ccc(O)c(O)c2)oc2c1ccc1ccccc12` [CMS-040, 2-(3,4-dihydroxyphenyl)-3-hydroxy-4H-benzo[h]chromen-4-one], the “further enhancement of neuroprotective activity” value is reported as approximately 5.5 fold.

In a further experiment the test system is N9 microglial cells. In words: anti-inflammatory assay, LPS-induced microglial activation (NO release). Format: cell-based, mouse. As to conditions: bacterial lipopolysaccharide, derivative 1-10 μM, 24 hr. Here is the method:
Anti-inflammatory assay. Mouse N9 microglial cells plated in DME with 7.5% DFCS were treated with 10 μg/ml bacterial lipopolysaccharide (Sigma) alone or in the presence of the Fisetin derivatives (1-10 μM) or Fisetin (10 μM) as a positive control. After 24 hr the medium was removed, spun briefly to remove floating cells and 100 μl assayed for NO using 100 μl of the Griess Reagent (Sigma) in a 96 well plate. After incubation for 10 min at room temperature the absorbance at 550 nm was read on a microplate reader.
Three secondary screens allowed assessment of three key activities of Fisetin that are highly relevant to stroke, as well as other neurological disorders: maintenance of glutathione (GSH), the major endogenous cellular antioxidant, inhibition of LPS-induced microglial activation, an indicator of anti-inflammatory activity and PC12 cell differentiation, a measure of neurotrophic activity. All of these activities are relevant to the nerve cell loss seen in stroke (Gelderblom, et al., Stroke. 2009, 40 (5), 1849-1857; Pandya, et al., Cent. Nerv. Syst. Agents. Med. Chem. (2011) Apr. 27; Lewerenz, et al., J. Neurochem. (2010) 113 (2), 502-504). […] To assess GSH maintenance, total intracellular GSH levels after a 24 hr treatment with the compound both in the absence and presence of glutamate, an inducer of GSH loss and oxidative stress (Tan, et al., Curr. Top. Med. Chem. (2001) 1, 497-506; Maher, et al., Free Radical Research. (2006) 40 (10), 1105-1111) was measured Inhibition of LPS-induced microglial activation was determined by treating N9 mouse microglial cells with LPS alone and in the presence of the compounds and assaying NO release into the medium 24 hr later (Zheng, et al., Int. Immunopharmacol. (2008) 8, (3), 484-494). PC12 cell differentiation was determined by treating PC12 cells with the compounds and looking at neurite outgrowth after 24 hr. In all cases, Fisetin was used as a positive control (Sagara, et al., J. Neurochem. (2004) 90, 1144-1155).
The roles of the four different hydroxyl groups in the activity of Fisetin were studied. […] Cell viability was determined after 24 hr by the MTT assay. The ability to maintain GSH (GSH) was determined by treating HT22 cells with different doses of each derivative (1-10 μM) in the presence of 5 mM glutamate. After 24 hr cell extracts were prepared and analyzed for total GSH. Fisetin (10 μM) was used as a positive control. The ability to induce PC12 cell differentiation (PC12 diff'n) was determined by treating PC12 cells in N2 medium with different doses of each derivative (1-10 μM) for 24 hr. Differentiation was assessed by visual inspection with Fisetin (10 μM) as a positive control. Anti-inflammatory activity (microglia) was assessed in N9 microglial cells treated with bacterial lipopolysaccharide alone or in the presence different doses of each derivative (1-10 μM) for 24 hr. Fisetin was used as a positive control. TEAC values, a measure of direct antioxidant activity, were determined using the ABTS+ decolorization assay.
As for `Cc1cc(O)c(C(=O)/C=C/c2ccc(O)c(O)c2)cc1C` [CMS-011, (E)-3-(3,4-dihydroxyphenyl)-1-(2-hydroxy-4,5-dimethylphenyl)prop-2-en-1-one], the “microglia (anti-inflammatory activity)” value is given as 94%.
In the case of `O=C(/C=C/c1ccc(O)c(O)c1)c1ccc2ccccc2c1O` [CMS-034, (E)-3-(3,4-dihydroxyphenyl)-1-(1-hydroxynaphthalen-2-yl)prop-2-en-1-one], the “microglia (anti-inflammatory activity)” value is given as 75%.
As to `O=c1c(O)c(-c2ccc(O)c(O)c2)oc2c1ccc1ccccc12` [CMS-040, 2-(3,4-dihydroxyphenyl)-3-hydroxy-4H-benzo[h]chromen-4-one], the “microglia (anti-inflammatory activity)” value stood at 91%.
For `COc1cc(-c2ccc(N3CCCC3)cc2)nc2ccccc12` [CMS-110, 4-methoxy-2-(4-(pyrrolidin-1-yl)phenyl)quinoline], the “microglia (anti-inflammatory activity)” value amounted to 67%.
Same read-out and setting: to `COc1cc(-c2ccc([N+](=O)[O-])c(O)c2)nc2ccccc12` [CMS-111, 4-methoxy-2-(3-hydroxy-4-nitrophenyl)quinoline] belongs 25%; to `Cc1cc2oc(-c3ccc(N(C)C)cc3)c(O)c(=O)c2cc1C` [CMS-117, 2-(4-(dimethylamino)phenyl)-3-hydroxy-6,7-dimethyl-4H-chromen-4-one], 11%.
`CN(C)c1ccc(-c2oc3c(ccc4ccccc43)c(=O)c2O)cc1` [CMS-118, 2-(4-(dimethylamino)phenyl)-3-hydroxy-4H-benzo[h]chromen-4-one]: the “microglia (anti-inflammatory activity)” value is given as 0%.
On to `Cc1cc2oc(-c3ccc(N4CCCC4)cc3)c(O)c(=O)c2cc1C` [CMS-122, 3-hydroxy-6,7-dimethyl-2-(4-(pyrrolidin-1-yl)phenyl)-4H-chromen-4-one], for which the “microglia (anti-inflammatory activity)” value was 0%.

In the next experiment the test system is Nrf2. In words: Nrf2 induction, SDS-PAGE and Western blotting of nuclear extracts. Format: cell-based. As to conditions: cells treated 1, 2 and 4 hr at most protective concentration. Here is the method: SDS-PAGE and immunoblotting. For immunoblotting of Nrf2, nuclear extracts were prepared as described (Schreiber, et al., Nucleic Acids Res. (1989) 17 (15), 6419) from untreated cells and cells treated with the Fisetin derivatives for 1, 2 and 4 hr. Fisetin was used as a positive control. […] Protein concentrations were determined using the BCA protein assay (Pierce). Equal amounts of protein were solubilized in 2.5× SDS-sample buffer, separated on 10% SDS-polyacrylamide gels and transferred to nitrocellulose. Equal loading and transfer of the samples was confirmed by staining the nitrocellulose with Ponceau-S. Transfers were blocked for 1 hr at room temperature with 5% nonfat milk in TBS/0.1% Tween 20 and then incubated overnight at 4° C. in the primary antibody diluted in 5% BSA in TBS/0.05% Tween 20. The primary antibodies used were: anti-Nrf2 (#SC13032; 1/1000) from Santa Cruz Biotechnology (Santa Cruz, Calif.) and anti-β-actin (#5125; 1/20,000) from Cell Signaling (Beverly, Mass.). The transfers were rinsed with TB S/0.05% Tween 20 and incubated for 1 hr at room temperature in horseradish peroxidase-goat anti-rabbit or goat anti-mouse (Biorad, Hercules, Calif.) diluted 1/5000 in 5% nonfat milk in TBS/0.1% Tween 20. The immunoblots were developed with the Super Signal reagent (Pierce, Rockford, Ill.).
The transcription factor Nrf2 plays a key role in regulating GSH metabolism in many different cell types (Lewerenz, et al., Antioxidant & Redox Signaling. (2011) 14, 1449-1465). We have shown that Fisetin can induce Nrf2 and this correlates with its ability to enhance GSH levels (Maher, P. et al., Genes. Nutr. (2009) Sep. 10). To determine if the derivatives which can maintain GSH levels do so by increasing Nrf2 we looked at Nrf2 levels in the nuclei of derivative-treated cells using Fisetin as a positive control (Table 4). […] This was particularly true for the derivatives based on the quinoline scaffold where none of them increased Nrf2 despite being very effective at maintaining GSH levels.
The ability of the derivatives that maintain GSH levels to induce the transcription factor Nrf2 was assayed by SDS-PAGE and Western blotting of nuclear extracts of untreated and derivative-treated cells. Fisetin treatment was used as a positive control.
(A western blot detects proteins with antibodies after separation by electrophoresis.)
`Cc1cc(O)c(C(=O)/C=C/c2ccc(O)c(O)c2)cc1C` [CMS-011, (E)-3-(3,4-dihydroxyphenyl)-1-(2-hydroxy-4,5-dimethylphenyl)prop-2-en-1-one]: the “Nrf2 (induction of transcription factor Nrf2)” value (from here on “Nrf2”) was “Yes”.
With `O=C(/C=C/c1ccc(O)c(O)c1)c1ccc2ccccc2c1O` [CMS-034, (E)-3-(3,4-dihydroxyphenyl)-1-(1-hydroxynaphthalen-2-yl)prop-2-en-1-one], the “Nrf2” value is “Yes”.
For `Cc1cc2oc(-c3ccc(N(C)C)cc3)c(O)c(=O)c2cc1C` [CMS-117, 2-(4-(dimethylamino)phenyl)-3-hydroxy-6,7-dimethyl-4H-chromen-4-one], the “Nrf2” value was “No”.
As for `CN(C)c1ccc(-c2oc3c(ccc4ccccc43)c(=O)c2O)cc1` [CMS-118, 2-(4-(dimethylamino)phenyl)-3-hydroxy-4H-benzo[h]chromen-4-one], the “Nrf2” value was “No”.
On the same count and under the same terms, to `Cc1cc2oc(-c3ccc(N4CCCC4)cc3)c(O)c(=O)c2cc1C` [CMS-122, 3-hydroxy-6,7-dimethyl-2-(4-(pyrrolidin-1-yl)phenyl)-4H-chromen-4-one] belongs “No”.
